Assay [1] deals with HepG2. The experiment in a line: Induction of apoptosis in human HepG2 cells assessed as change in nuclear morphology at 25 uM after 24 hrs by Hoechst staining-based fluorescence microscopic analysis relative to 5-FU. The format is functional.
Assay [2] relates to HepG2. In words: Cytotoxicity against human HepG2 cells assessed as reduction in cell viability at 25 uM after 72 hrs by MTS assay relative to control. The format is functional. For orientation: Tetrazolium dyes change colour on reduction, which living cells bring about.
Assay [3] concerns HepG2. In words: Induction of apoptosis in human HepG2 cells at 50 uM after 72 hrs by Guava ViaCount flow cytometric analysis relative to control. It counts as functional. For orientation: A flow cytometer gives signals particle by particle.
Assay [4] deals with HCT-116. The experiment in a line: Induction of apoptosis in human HCT116 cells assessed as increase in caspase-3/7 activity at 25 to 50 uM after 24 hrs by caspase-Glo 3/7 assay. It counts as functional, cell-based.
The subject of assay [5] is HCT-116. The experiment in a line: Cytotoxicity against human HCT116 cells assessed as reduction in cell viability at 25 uM after 72 hrs by MTS assay relative to control. It counts as functional.
The test system of assay [6] is HCT-116. In words: Induction of apoptosis in human HCT116 cells at 50 uM after 72 hrs by Guava ViaCount flow cytometric analysis relative to control. The format is functional.
The test system of assay [7] is HepG2. The experiment in a line: Induction of apoptosis in human HepG2 cells assessed as change in nuclear morphology at 25 uM after 24 hrs by Hoechst staining-based fluorescence microscopic analysis relative to vehicle-treated control. It counts as functional.
Assay [8] has as its system HepG2. The experiment in a line: Induction of apoptosis in human HepG2 cells assessed as increase in caspase-3/7 activity at 25 to 50 uM after 24 hrs by caspase-Glo 3/7 assay. The format is functional, cell-based.
The subject of assay [9] is HCT-116. In words: Induction of apoptosis in human HCT116 cells assessed as change in nuclear morphology at 25 uM after 24 hrs by Hoechst staining-based fluorescence microscopic analysis relative to vehicle-treated control. It counts as functional.
Assay [10] has as its system HCT-116. The experiment in a line: Induction of apoptosis in human HCT116 cells assessed as change in nuclear morphology at 25 uM after 24 hrs by Hoechst staining-based fluorescence microscopic analysis relative to 5-FU. It counts as functional.
Assay [11] relates to HCT-116. The experiment in a line: Induction of apoptosis in human HCT116 cells at 5 to 50 uM after 72 hrs by Guava ViaCount flow cytometric analysis. It counts as functional, cell-based.
The test system of assay [12] is HCT-116. The experiment in a line: Cytotoxicity against human HCT116 cells assessed as reduction in cell viability at 50 uM after 72 hrs by MTS assay relative to control. The format is functional.
Assay [13] concerns HepG2. The experiment in a line: Induction of apoptosis in human HepG2 cells at 5 to 50 uM after 72 hrs by Guava ViaCount flow cytometric analysis. It counts as functional, cell-based.
The test system of assay [14] is HepG2. The experiment in a line: Cytotoxicity against human HepG2 cells assessed as reduction in cell viability at 50 uM after 72 hrs by MTS assay relative to control. It counts as functional.
The test system of assay [15] is HCT-116. The experiment in a line: Induction of apoptosis in human HCT116 cells assessed as change in nuclear morphology at 25 to 50 uM after 24 hrs by Hoechst staining-based fluorescence microscopic analysis. The format is functional, cell-based.
The subject of assay [16] is HepG2. The experiment in a line: Induction of apoptosis in human HepG2 cells assessed as change in nuclear morphology at 25 to 50 uM after 24 hrs by Hoechst staining-based fluorescence microscopic analysis. The format is functional, cell-based.
Assay [17] deals with HCT-116. The experiment in a line: Induction of apoptosis in human HCT116 cells at 25 uM after 72 hrs by Guava ViaCount flow cytometric analysis relative to control. It counts as functional.
Assay [18] has as its system HepG2. The experiment in a line: Induction of apoptosis in human HepG2 cells at 25 uM after 72 hrs by Guava ViaCount flow cytometric analysis relative to control. It counts as functional.
The subject of assay [19] is HepG2. The experiment in a line: Cytotoxicity against human HepG2 cells assessed as reduction in cell viability at 5 to 50 uM after 72 hrs by MTS assay. It counts as functional, cell-based.
Assay [20] concerns HCT-116. The experiment in a line: Cytotoxicity against human HCT116 cells assessed as reduction in cell viability at 5 to 50 uM after 72 hrs by MTS assay. The format is functional, cell-based.
Assay [21] relates to HCT-116. In words: Cytotoxicity against human HCT116 cells assessed as reduction in cell viability at 10 uM after 72 hrs by MTS assay relative to control. The format is functional.

SMILES strings stand for the structures. Calls of active or inactive are those of the source. No cut-off for these calls is given here. Some results are limits rather than exact numbers.

The results in this text go back to ChEMBL document CHEMBL3603783, “Monoterpene indole alkaloid hydrazone derivatives with apoptosis inducing activity in human HCT116 colon and HepG2 liver carcinoma cells” (2015).

As to `CC[C@@H]1CN(C)[C@H]2Cc3c([nH]c4ccccc34)/C(=N/Nc3ccc(Br)cn3)C[C@H]1[C@@H]2C(=O)OC`, the “fold change (FC)” value with HepG2 [1] turned out to be 2; in the assay on HepG2 [7] it was 4; in the assay with HCT-116 [9], 2; in the assay on HCT-116 [10], 2. The Activity in the assay with HepG2 [2] was more than 95%; in the assay with HepG2 [3], 95%; with HCT-116 [5], more than 95%; in the assay with HCT-116 [6] it was 95%. The result in the assay with HCT-116 [4] and in the assay with HepG2 [8] was Active.

Turning to `CC[C@@H]1CN(C)[C@H]2Cc3c([nH]c4ccccc34)C(=O)C[C@@H]1[C@H]2C(=O)OC`, the result with HCT-116 [11], in the assay on HCT-116 [12], in the assay on HepG2 [13] and in the assay with HepG2 [14] was inactive.

Turning to `CC[C@@H]1CN(C)[C@H]2Cc3c([nH]c4ccccc34)/C(=N/Nc3ccccc3)C[C@H]1[C@@H]2C(=O)OC`, the Activity in the assay with HepG2 [2] is given as 60%; in the assay with HepG2 [3], 95%; with HCT-116 [12], more than 95%; with HCT-116 [6], 95%; with HCT-116 [17], 35%; in the assay on HepG2 [14], more than 95%. In the assay on HepG2 [18], this compound returned an Activity of 90%. Besides, the outcome in the assay on HCT-116 [4], in the assay with HCT-116 [15], with HepG2 [16] and in the assay with HepG2 [8] was Active.

For the compound `O=c1[nH]cc(F)c(=O)[nH]1`, the outcome in the assay with HCT-116 [11], in the assay on HepG2 [13], with HCT-116 [15], in the assay on HepG2 [16], in the assay on HepG2 [19] and in the assay with HCT-116 [20] was Active.

As to `CC[C@H]1CN(C)[C@H]2Cc3c([nH]c4ccccc34)/C(=N/Nc3ccccc3)C[C@H]1[C@@H]2C(=O)OC`, the result in the assay with HCT-116 [12] and with HepG2 [14] was inactive.

`CC[C@H]1CN(C)[C@H]2Cc3c([nH]c4ccccc34)C(=O)C[C@H]1[C@@H]2C(=O)OC`: the result in the assay with HCT-116 [11], with HCT-116 [12], in the assay with HepG2 [13] and in the assay with HepG2 [14] was inactive.

For `CC[C@H]1CN(C)[C@H]2Cc3c([nH]c4ccccc34)/C(=N/Nc3ccc(Br)cn3)C[C@H]1[C@@H]2C(=O)OC`, the “fold change (FC)” value with HepG2 [1] amounted to 2.7; in the assay on HepG2 [7] it was 5.5; in the assay on HCT-116 [9] it was 4; with HCT-116 [10], 4. Also, the Activity with HepG2 [2] is reported as more than 95%; in the assay with HCT-116 [5] it was more than 95%; with HCT-116 [21], 75%; with HCT-116 [17], 95%; in the assay on HepG2 [18], 95%. In addition, the outcome with HCT-116 [4] and in the assay with HepG2 [8] was Active.
